Source: ChEMBL document CHEMBL2203017, “STAT6 phosphorylation inhibitors block eotaxin-3 secretion in bronchial epithelial cells” (Bioorg Med Chem, 2012)
Activity calls are given as the source filed them. The rule behind the calls is not given here.

Assays:
[1] = target: T1, Signal transducer and activator of transcription 6 (Homo sapiens, UniProt P42226); test: Inhibition of human STAT6 expressed in 293-EBNA cells assessed as inhibition of IL4-induced STAT6 transcriptional activation after 1 hr by Photinus pylaris luciferase reporter gene assay; assay type: cell-based
T1 sequence (P42226 whole entry): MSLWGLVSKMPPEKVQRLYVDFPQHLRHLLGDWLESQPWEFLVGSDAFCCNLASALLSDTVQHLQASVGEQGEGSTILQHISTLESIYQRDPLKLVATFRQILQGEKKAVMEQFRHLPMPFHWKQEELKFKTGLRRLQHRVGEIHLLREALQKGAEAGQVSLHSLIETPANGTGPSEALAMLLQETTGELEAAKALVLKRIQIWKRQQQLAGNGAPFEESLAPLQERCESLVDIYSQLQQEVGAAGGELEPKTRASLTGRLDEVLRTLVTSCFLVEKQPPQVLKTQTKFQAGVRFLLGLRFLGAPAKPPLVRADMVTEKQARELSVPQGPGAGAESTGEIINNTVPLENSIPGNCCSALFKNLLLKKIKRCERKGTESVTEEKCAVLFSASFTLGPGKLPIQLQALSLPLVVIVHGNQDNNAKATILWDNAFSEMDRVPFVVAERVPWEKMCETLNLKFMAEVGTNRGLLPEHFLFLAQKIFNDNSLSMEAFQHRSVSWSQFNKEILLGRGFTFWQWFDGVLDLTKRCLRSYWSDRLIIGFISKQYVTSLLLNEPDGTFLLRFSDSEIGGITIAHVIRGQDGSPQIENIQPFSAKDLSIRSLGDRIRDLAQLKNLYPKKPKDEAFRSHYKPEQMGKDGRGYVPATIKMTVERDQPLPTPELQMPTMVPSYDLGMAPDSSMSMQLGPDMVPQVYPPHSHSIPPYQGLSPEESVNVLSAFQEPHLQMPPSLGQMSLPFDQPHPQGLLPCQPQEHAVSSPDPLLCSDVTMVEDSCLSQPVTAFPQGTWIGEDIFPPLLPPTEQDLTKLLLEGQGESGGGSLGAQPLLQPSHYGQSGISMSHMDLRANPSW

[2] = Cytotoxicity against human 293-EBNA cells assessed as effect on luciferase activity at 10 uM after 1 hr by Photinus reniformis luciferase reporter gene assay; assay type: cell-based
[3] = target: T2, Signal transducer and activator of transcription 6 (Homo sapiens) (UniProt P42226); test: Inhibition of human STAT6 expressed in 293-EBNA cells assessed as inhibition of IL4-induced STAT6 transcriptional activation at 10 uM after 1 hr by Renilla reniformis luciferase reporter gene assay; assay type: cell-based
T2 sequence (whole entry): T1 sequence (P42226 whole entry)

[4] = Cytotoxicity against human 293-EBNA cells assessed as effect on luciferase activity at 10 uM after 1 hr by Renilla reniformis luciferase reporter gene assay; assay type: cell-based
[5] = target: T2, Signal transducer and activator of transcription 6 (Homo sapiens); test: Inhibition of human N-terminal HA/myc tagged STAT6 expressed in 293-EBNA cells assessed as inhibition of IL-4-induced STAT6 inactive dimer-tyrosine phosphorylation after 1 hr by immunoblot analysis; assay type: cell-based
[6] = target: T2, Signal transducer and activator of transcription 6 (Homo sapiens); test: Inhibition of human STAT6 expressed in 293-EBNA cells assessed as inhibition of IL4-induced STAT6 transcriptional activation at 10 uM after 1 hr by Photinus pylaris luciferase reporter gene assay; assay type: cell-based
[7] = target: T2, Signal transducer and activator of transcription 6 (Homo sapiens); test: Inhibition of human N-terminal HA/myc tagged STAT6 expressed in 293-EBNA cells assessed as effect on STAT6 dimer configuration after 1 hr by immunoblot analysis; assay type: cell-based
[8] = target: T1, Signal transducer and activator of transcription 6; test: Binding affinity at human recombinant STAT6 by SPR analysis
[9] = target: Tyrosine-protein kinase JAK2 (Homo sapiens) (UniProt O60674); test: Inhibition of JAK2 up to 10 uM after 30 mins by colorimetric ELISA
Tyrosine-protein kinase JAK2 (Homo sapiens), sequence (O60674 whole entry): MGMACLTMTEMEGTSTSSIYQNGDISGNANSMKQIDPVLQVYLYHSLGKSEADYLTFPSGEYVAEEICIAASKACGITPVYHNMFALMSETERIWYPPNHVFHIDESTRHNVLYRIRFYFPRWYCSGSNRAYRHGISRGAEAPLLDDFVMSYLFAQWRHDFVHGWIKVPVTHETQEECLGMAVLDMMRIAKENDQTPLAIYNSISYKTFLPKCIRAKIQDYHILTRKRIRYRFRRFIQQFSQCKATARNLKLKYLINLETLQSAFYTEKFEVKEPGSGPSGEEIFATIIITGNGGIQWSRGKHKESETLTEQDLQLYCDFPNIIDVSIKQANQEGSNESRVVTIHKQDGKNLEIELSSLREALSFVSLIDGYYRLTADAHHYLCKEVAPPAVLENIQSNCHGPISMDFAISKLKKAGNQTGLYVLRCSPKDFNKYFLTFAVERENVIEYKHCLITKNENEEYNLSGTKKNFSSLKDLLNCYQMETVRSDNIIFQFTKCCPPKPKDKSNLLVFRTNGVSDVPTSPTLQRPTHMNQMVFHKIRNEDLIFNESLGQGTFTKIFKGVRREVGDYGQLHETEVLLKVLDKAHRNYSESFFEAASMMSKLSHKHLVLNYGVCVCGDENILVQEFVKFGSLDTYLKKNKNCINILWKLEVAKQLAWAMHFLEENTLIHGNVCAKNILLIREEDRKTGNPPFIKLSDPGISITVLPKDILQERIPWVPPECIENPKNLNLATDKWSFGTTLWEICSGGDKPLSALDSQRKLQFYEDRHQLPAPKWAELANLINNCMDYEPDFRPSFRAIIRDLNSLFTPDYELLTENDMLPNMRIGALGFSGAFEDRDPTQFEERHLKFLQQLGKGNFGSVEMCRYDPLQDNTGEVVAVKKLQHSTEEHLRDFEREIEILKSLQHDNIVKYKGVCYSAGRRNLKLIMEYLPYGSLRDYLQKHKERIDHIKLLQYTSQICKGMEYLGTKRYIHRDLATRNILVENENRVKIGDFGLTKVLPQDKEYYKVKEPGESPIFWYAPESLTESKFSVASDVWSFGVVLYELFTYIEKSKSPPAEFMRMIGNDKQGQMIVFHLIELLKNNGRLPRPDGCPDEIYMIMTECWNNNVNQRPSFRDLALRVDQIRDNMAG

[10] = target: T2, Signal transducer and activator of transcription 6 (Homo sapiens); test: Inhibition of IL-4-induced human STAT6 tyrosine phosphorylation expressed in 293-EBNA cells at 10 uM incubated for 1 hr prior to IL-4-induction measured after 6 hrs by Western blot analysis; assay type: cell-based
[11] = target: T2, Signal transducer and activator of transcription 6 (Homo sapiens); test: Inhibition of interaction of human recombinant STAT6 with tyrosine phosphorylated IL-4Ralpha peptide at 20 uM after 1 hr by ELISA
[12] = target: Signal transducer and activator of transcription 6 (Homo sapiens) (UniProt P42226); test: Inhibition of human STAT6 expressed in BEAS2B cells assessed as IL4-induced eotaxin-3 secretion after 24 hrs by ELISA
[13] = target: Signal transducer and activator of transcription 6 (Homo sapiens) (UniProt P42226); test: Inhibition of human STAT6 expressed in BEAS2B cells assessed as inhibition of IL4-induced STAT6 transcriptional activation
[14] = target: Signal transducer and activator of transcription 6 (Homo sapiens) (UniProt P42226); test: Inhibition of human STAT6 expressed in BEAS2B cells assessed as […]-induced eotaxin-3 secretion at 10 uM after 24 hrs by ELISA
[15] = target: Signal transducer and activator of transcription 6 (Homo sapiens) (UniProt P42226); test: Inhibition of human STAT6 expressed in BEAS2B cells assessed as IL4-induced eotaxin-3 secretion at 10 uM after 24 hrs by ELISA
[16] = target: Signal transducer and activator of transcription 6 (Homo sapiens) (UniProt P42226); test: Inhibition of human STAT6 expressed in BEAS2B cells assessed as IL4/TNFalpha-induced eotaxin-3 secretion at 10 uM after 24 hrs by ELISA
[17] = target: Signal transducer and activator of transcription 6 (Homo sapiens) (UniProt P42226); test: Inhibition of human STAT6 expressed in BEAS2B cells assessed as […]/TNFalpha-induced eotaxin-3 secretion in presence of TNFalpha at 10 uM after 24 hrs by ELISA

| Compound | IC50 [1] [nM] | Activity [2] | inhibition [3] | Activity [4] | inhibition [5] | inhibition [6] | inhibition [7] | Kd [8] [nM] | inhibition [9] | inhibition [10] | inhibition [11] | IC50 [12] [nM] | inhibition [13] | inhibition [14] | inhibition [15] | inhibition [16] | inhibition [17] |
| --- | --- | --- | --- | --- | --- | --- | --- | --- | --- | --- | --- | --- | --- | --- | --- | --- | --- |
| CC(C)[C@@H](C)NC(=O)c1cc(-c2cc3ccccc3s2)cc(C(=O)NCCc2ccccn2)n1 | 3200 | Non-toxic | Active | Non-toxic | Active | Active | inactive | 701 | inactive | Active | inactive |  |  |  |  |  |  |
| CN(CCc1ccccc1)C(=O)c1csc2c1CCC/C2=N/O |  |  |  |  | inactive |  | inactive | 74000 |  | inactive | inactive |  |  |  |  |  |  |
| CC(C)[C@@H](C)NC(=O)c1cc(-c2cc3ccccc3n2C)cc(C(=O)NCCc2ccccn2)n1 | 2700 | Non-toxic | Active | Non-toxic | Active | Active | inactive | 656 | inactive | Active | inactive | 2740 | Active | Active | Active | Active | Active |
